# Reference: US12685756B2, “Methods of treating disease with Terlipressin” (BIOVIE INC., priority 2022, dated 2026)
# Positions of bridges follow the written chain, without caps; N, C: chain ends. Residues, ends and D or L forms follow the SMILES beside them.
# What was measured:
# [1] = in vivo; cited from earlier work
# [2] = in vivo; cited from earlier work; remark: listed apart in the source
# [3] = in vivo; cited from earlier work; remark: listed apart in the source
# [4] = design: species or system human; conditions: in vivo
# Experimental: Patient #4, who was one of 6 patients treated with terlipressin administered as a continuous infusion in our previous Phase 2a trial, was a person with recurrent ascites due to cirrhosis despite taking the […] spironolactone and furosemide. Terlipressin, furosemide, and serum sodium levels of […] are recorded in FIG. 4. According to protocol this patient began treatment with terlipressin at an initial dose of 2 mg/day who was escalated to a dose of 3 mg/day on Day 5. Serum sodium gradually declined over time reaching a reduction of 10 mmol/L on Day 5 at which point the patient stopped taking furosemide. Serum sodium continued to decline and spironolactone was stopped for two days which had no impact on declining serum sodium. Terlipressin infusion was stopped after 9 days of treatment and serum sodium rebounded after 2 days of drug cessation.
# Additionally, one patient in our previously conducted Phase 2a trial (n=6) similarly developed asymptomatic hyponatremia in response to terlipressin administration.
# In searching for a commonality between the three patients that experienced hyponatremia in response to terlipressin treatment in the current trial it was noted that the three patients were taking daily gabapentin (Patient #1 and 2) or pregabalin (Patient #3) though none of the other 7 patients randomized to treatment with terlipressin were taking either of these medications. Moreover, the one patient out of six who developed hyponatremia in response to terlipressin in the previous Phase 2a trial was also taking gabapentin.
# [5] = continuous infusion, outpatient setting, without daily albumin; cited from earlier work
# [6] = human, in vivo; cited from earlier work
# [7] = administered over 14 days with daily albumin to HRS patients; cited from earlier work
# [8] = bolus IV administration, cited from earlier work
# [9] = ongoing clinical trial of terlipressin administered as a continuous infusion in patients with cirrhosis and refractory ascites (serum sodium, hyponatremia); conditions: human, in vivo
# Experimental: The following clinical observations were made in an ongoing clinical trial evaluating the safety and efficacy of terlipressin, administered as a continuous infusion, in patients with cirrhosis and refractory ascites. In FIGS. 1-4, “D” stands for “Day” and the notation “Dn” where n is an integer refers to the number of days after the baseline sodium level was measured. The notation “D+N” where N is an integer refers to the number of days after administration of terlipressin was stopped.
# Patient #1, a patient with cirrhosis due to NASH and recurrent ascites that was not responding to treatment with the diuretic furosemide initiated infusion with terlipressin (3 mg/day) on Day 1. Terlipressin dose (mg/day), furosemide daily dose, and serum sodium levels of the Patient #1 are recorded in FIG. 1. After 6 days of treatment with terlipressin at a dose of 3 mg/day the dose of terlipressin was escalated to 4 mg/day as per protocol. A modest reduction in serum sodium of 3 mmol/L from baseline was noted before the dose increase. After 7 days of treatment with 4 mg/day serum sodium decreased an additional 8 mmol/L so that there was a total reduction of 11 mmol/L in the 13 days of treatment versus baseline (128 vs 139 mmol/L). […] Terlipressin infusion was discontinued.
# Patient #2, a person with alcoholic cirrhosis and recurrent ascites who could not be treated with diuretics began treatment with terlipressin at a dose of 3 mg/day. The daily terlipressin dose and serum sodium levels of the Patient #2 are recorded in FIG. 2.
# Patient #3, a person with cirrhosis due to NASH, with uncontrolled ascites despite ongoing treatment with the diuretics furosemide and spironolactone, initiated treatment with terlipressin administered as a continuous intravenous infusion at a dose of 3 mg/day. Terlipressin dose (mg/day), furosemide daily dose, and serum sodium levels of the Patient #3 are recorded in FIG. 3. […] Though the patient was asymptomatic the patient was directed to go to the Emergency room. […]
# [10] = human, in vivo; cited from earlier work; remark: listed apart in the source
# [11] = administered acutely as a single bolus dose; cited from earlier work
smiles,measurement,setting,value
NC(=O)CC[C@@H]1NC(=O)[C@H](Cc2ccccc2)NC(=O)[C@H](Cc2ccc(O)cc2)NC(=O)CCSSC[C@@H](C(=O)N2CCC[C@H]2C(=O)N[C@H](CCCN=C(N)N)C(=O)NCC(N)=O)NC(=O)[C@H](CC(N)=O)NC1=O [desmopressin],incidence of desmopressin-induced hyponatremia,[1],7.6%
NCC1(CC(=O)O)CCCCC1 [gabapentin],risk of hyponatremia compared with other anti-epilepsy drugs,[2],lowest risk of hyponatremia among anti-epilepsy drugs
NCCCC[C@H](NC(=O)[C@@H]1CCCN1C(=O)[C@@H]1CSSC[C@H](NC(=O)CNC(=O)CNC(=O)CN)C(=O)N[C@@H](Cc2ccc(O)cc2)C(=O)N[C@@H](Cc2ccccc2)C(=O)N[C@@H](CCC(N)=O)C(=O)N[C@@H](CC(N)=O)C(=O)N1)C(=O)NCC(N)=O [terlipressin] (H-GGGCYFQNCPKG-NH2; disulfide 4-9),incidence of hyponatremia,[3],< 5%
same,patients who developed asymptomatic hyponatremia in response to terlipressin,[4],one patient
same,relatedness of severe hyponatremia to treatment,[4],considered related to terlipressin treatment
same,serum sodium after drug cessation,[4],rebounded
same,symptoms of severe hyponatremia,[4],asymptomatic
same,effect on renal function and ascites,[5],improve renal function and reduce ascites
same,effect on serum sodium concentrations,[5],improve serum sodium concentrations
same,patients who experienced hyponatremia defined as ≥5 mmol decrease in serum sodium,[6],67%
same,effect on low serum sodium,[7],can even correct low serum sodium
same,hours in which V2 mediated antidiuretic effects can predominate,[8]; between bolus doses,4 to 6 h
same,duration of V1-mediated pharmacodynamic effects,[8],3 to 4 h
same,additional decrease in serum sodium,[9],4 mmol/L
same,relatedness of hyponatremia to treatment,[9],considered related to terlipressin
same,total reduction in serum sodium versus baseline,[9],11 mmol/L
same,patients with severe hyponatremia (reduction in serum sodium of >10 mmol/L),[10],more than 12%
same,patients with severe hyponatremia who experience neurological manifestations,[10],at least 30%
same,antidiuretic effect,[11],mediates antidiuretic effects
